According to US9624229B2, “Pyrimidine-2-amine compounds and their use as inhibitors of JAK kinases” (Rigel Pharmaceuticals, Inc., priority 2008, dated 2017):

biological target: Ba/F3 V617F cells (Homo sapiens, UniProt O60674, V617F, cells depend on it); assay: Proliferation assay (Cell Titer-Glo, 72 h) utilizing Ba/F3 V617F cells; type: cell-based, mouse; details: Ba/F3 V617F cells, proliferation, level of activity given as class symbol, read-out: IC50 (the source's name)
Summary of the method: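 Ba/F3 V617F cells in RPMI/10% FBS, 1×10^5 cells/mL, exposed in duplicate to 3-fold serial compound dilutions (top 5 mM DMSO stock, diluted 1:250, added as 2× solution in 5% FBS medium) for 72 h at 37 °C. Viability by Cell Titer-Glo luminescence; IC50 reported.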

Sequence of Ba/F3 V617F cells (O60674 whole entry V617F): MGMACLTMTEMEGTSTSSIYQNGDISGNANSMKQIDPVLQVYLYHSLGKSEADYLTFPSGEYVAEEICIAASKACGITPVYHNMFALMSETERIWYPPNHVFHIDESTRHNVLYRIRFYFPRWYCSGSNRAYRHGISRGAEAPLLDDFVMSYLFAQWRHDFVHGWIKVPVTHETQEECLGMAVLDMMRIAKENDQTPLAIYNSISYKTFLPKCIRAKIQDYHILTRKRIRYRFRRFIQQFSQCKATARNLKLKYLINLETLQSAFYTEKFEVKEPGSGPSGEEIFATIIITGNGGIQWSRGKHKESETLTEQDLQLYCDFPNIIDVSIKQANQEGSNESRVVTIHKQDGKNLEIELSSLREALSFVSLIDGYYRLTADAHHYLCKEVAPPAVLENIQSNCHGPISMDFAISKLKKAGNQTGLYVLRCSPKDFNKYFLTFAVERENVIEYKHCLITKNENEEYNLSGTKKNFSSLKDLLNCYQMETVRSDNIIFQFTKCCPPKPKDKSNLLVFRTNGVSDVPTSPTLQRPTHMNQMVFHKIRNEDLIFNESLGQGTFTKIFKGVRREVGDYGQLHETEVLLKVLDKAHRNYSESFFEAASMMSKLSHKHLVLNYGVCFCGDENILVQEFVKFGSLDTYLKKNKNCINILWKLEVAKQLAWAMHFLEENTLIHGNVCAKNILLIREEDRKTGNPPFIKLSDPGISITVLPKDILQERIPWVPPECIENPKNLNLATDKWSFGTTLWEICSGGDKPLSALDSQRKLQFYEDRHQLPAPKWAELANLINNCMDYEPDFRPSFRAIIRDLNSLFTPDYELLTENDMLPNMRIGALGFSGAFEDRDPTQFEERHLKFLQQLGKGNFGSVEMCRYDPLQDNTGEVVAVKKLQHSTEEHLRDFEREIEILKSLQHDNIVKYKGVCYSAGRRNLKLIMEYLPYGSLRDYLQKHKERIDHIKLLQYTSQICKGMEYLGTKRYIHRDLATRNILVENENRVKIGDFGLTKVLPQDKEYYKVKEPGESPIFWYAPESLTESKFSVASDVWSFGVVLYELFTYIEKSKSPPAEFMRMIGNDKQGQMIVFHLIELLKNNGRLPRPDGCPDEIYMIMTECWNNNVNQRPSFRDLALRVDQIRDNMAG

Row | GI50 [µM] | SMILES
1 | < 1 | Cc1cc(Nc2nccc(-c3ccc(N4C[C@@H](C)O[C@@H](C)C4)nc3)n2)ccc1N1CC2(C)CN(C)CC(C)(C1)C2 [compound 212, 4-(6-((2S,6R)-2,6-dimethylmorpholin-4-yl)pyridin-3-yl)-N-(3-methyl-4-(1,5,7-trimethyl-3,7-diazabicyclo[3.3.1]nonan-3-yl)phenyl)pyrimidin-2-amine]
2 | < 1 | Cc1cc(Nc2nccc(-c3cnc4c(c3)OC(C)(C)C(=O)N4)n2)ccc1N1C[C@@H]2CC[C@H]1C2 [compound 223, 4-(2,2-dimethyl-3-oxo-3,4-dihydro-2H-pyrido[3,2-b][1,4]oxazin-7-yl)-N-(3-methyl-4-((1S,4R)-2-azabicyclo[2.2.1]heptan-2-yl)phenyl)pyrimidin-2-amine]
3 | < 1 | Cc1cc(Nc2nccc(-c3ccc4c(c3)OC(C)(C)C(=O)N4)n2)ccc1N1C[C@@H]2C[C@H]1CN2S(C)(=O)=O [compound 241, 4-(2,2-dimethyl-3-oxo-3,4-dihydro-2H-benzo[b][1,4]oxazin-7-yl)-N-(3-methyl-4-((1S,4S)-5-methylsulfonyl-2,5-diazabicyclo[2.2.1]heptan-2-yl)phenyl)pyrimidin-2-amine]
4 | < 1 | Cc1cc(Nc2nccc(-c3ccc4c(c3)OC(C)(C)C(=O)N4)n2)ccc1N1C[C@@H]2C[C@H]1CN2C [compound 240, 4-(2,2-dimethyl-3-oxo-3,4-dihydro-2H-benzo[b][1,4]oxazin-7-yl)-N-(3-methyl-4-((1S,4S)-5-methyl-2,5-diazabicyclo[2.2.1]heptan-2-yl)phenyl)pyrimidin-2-amine]
5 | < 1 | Cc1cc(Nc2nccc(-c3cnc4c(c3)OCCN4C)n2)ccc1N1C[C@@H]2C[C@H]1CO2 [compound 195, 4-(4-methyl-3,4-dihydro-2H-pyrido[3,2-b][1,4]oxazin-7-yl)-N-(3-methyl-4-((1S,4S)-5-oxa-2-azabicyclo[2.2.1]heptan-2-yl)phenyl)pyrimidin-2-amine]
6 | < 1 | Cc1cc(Nc2nccc(-c3ccc(NCCC(C)C)nc3)n2)ccc1N1C[C@@H]2C[C@H]1CN2C [compound 217, 4-(6-(3-methylbutyl)aminopyridin-3-yl)-N-(3-methyl-4-((1S,4S)-5-methyl-2,5-diazabicyclo[2.2.1]heptan-2-yl)phenyl)pyrimidin-2-amine]
7 | < 1 | Cc1cc(Nc2nccc(-c3ccc(N4CCOCC4)nc3)n2)ccc1N1CCN2CC[C@H]1C2 [compound 277, 4-(6-(morpholin-4-yl)pyridin-3-yl)-N-(3-methyl-4-((S)-1,4-diazabicyclo[3.2.1]octan-4-yl)phenyl)pyrimidin-2-amine]
8 | < 1 | CN1C[C@@H]2C[C@H]1CN2c1ccc(Nc2nccc(-c3cnc4c(c3)OC(C)(C)C(=O)N4)n2)cc1Cl [compound 248, 4-(2,2-dimethyl-3-oxo-3,4-dihydro-2H-pyrido[3,2-b][1,4]oxazin-7-yl)-N-(3-chloro-4-((1S,4S)-5-methyl-2,5-diazabicyclo[2.2.1]heptan-2-yl)phenyl)pyrimidin-2-amine]

same assay, conditions: Ba/F3 V617F cells, proliferation, level of activity to inhibit JAK2, read-out: IC50 (the source's name)

Row | GI50 [µM] | SMILES
9 | 1 to 10 | CN1C[C@@H]2C[C@H]1CN2c1ccc(Nc2nccc(-c3cc[nH]c3)n2)cc1 [compound 170, 4-(1H-pyrrol-3-yl)-N-(4-((1S,4S)-5-methyl-2,5-diazabicyclo[2.2.1]heptan-2-yl)phenyl)pyrimidin-2-amine]
10 | < 1 | CN(C)c1ccc(-c2ccnc(Nc3ccc(N4C[C@@H]5C[C@H]4CN5C)c(F)c3)n2)cn1 [compound 7, 4-(6-(N,N-dimethylamino)pyridin-3-yl)-N-(3-fluoro-4-((1S,4S)-5-methyl-2,5-diazabicyclo[2.2.1]heptan-2-yl)phenyl)pyrimidin-2-amine]
11 | 1 to 10 | Cc1cc(Nc2nccc(-c3ccc(-c4ncc(-c5ccc(N(C)C)cc5)o4)cc3)n2)ccc1N1C[C@@H]2C[C@H]1CN2C [compound 104, 4-(4-(5-(4-dimethylaminophenyl)oxazol-2-yl)phenyl)-N-(3-methyl-4-((1S,4S)-5-methyl-2,5-diazabicyclo[2.2.1]heptan-2-yl)phenyl)pyrimidin-2-amine]
12 | < 1 | Cc1cc(Nc2nccc(-c3cnc4c(c3)OC3(CCC3)C(=O)N4)n2)ccc1N1C[C@@H]2C[C@H]1CN2C [compound 31, 4-(3′-oxo-3,4′-dihydrospiro[cyclobutane-1,2′-pyrido[3,2-b][1,4]oxazine]-7-yl)-N-(3-methyl-4-((1S,4S)-5-methyl-2,5-diazabicyclo[2.2.1]heptan-2-yl)phenyl)pyrimidin-2-amine]
13 | < 1 | Cc1cc(Nc2nccc(-c3cnc(N4CCOCC4)c(C)c3)n2)ccc1N1C[C@@H]2C[C@H]1CN2C [compound 60, 4-(5-methyl-6-(morpholin-4-yl)pyridin-3-yl)-N-(3-methyl-4-((1S,4S)-5-methyl-2,5-diazabicyclo[2.2.1]heptan-2-yl)phenyl)pyrimidin-2-amine]
14 | < 1 | Cc1cc(Nc2nccc(-c3cnc4c(c3)OCCN4C)n2)ccc1N1C[C@@H]2C[C@H]1CN2C [compound 8, 4-(4-methyl-3,4-dihydro-2H-pyrido[3,2-b][1,4]oxazin-7-yl)-N-(3-methyl-4-((1S,4S)-5-methyl-2,5-diazabicyclo[2.2.1]heptan-2-yl)phenyl)pyrimidin-2-amine]
15 | < 1 | Cc1cc(Nc2nccc(-c3ccc(N)nc3)n2)ccc1N1C[C@@H]2C[C@H]1CN2S(C)(=O)=O [compound 150, 4-(6-aminopyridin-3-yl)-N-(3-methyl-4-((1S,4S)-5-methylsulfonyl-2,5-diazabicyclo[2.2.1]heptan-2-yl)phenyl)pyrimidin-2-amine]
16 | < 1 | CN1C[C@@H]2C[C@H]1CN2c1ccc(Nc2nccc(-c3ccc(NCCN4CCOCC4)nc3)n2)cc1F [compound 70, 4-(6-(2-(morpholin-4-yl)ethyl)aminopyridin-3-yl)-N-(3-fluoro-4-((1S,4S)-5-methyl-2,5-diazabicyclo[2.2.1]heptan-2-yl)phenyl)pyrimidin-2-amine]
17 | < 1 | CN1C[C@@H]2C[C@H]1CN2c1ccc(Nc2nccc(-c3cncc(S(C)(=O)=O)c3)n2)cc1C(F)(F)F [compound 102, 4-(5-(methyl)sulfonylpyridin-3-yl)-N-(3-trifluoromethyl-4-((1S,4S)-5-methyl-2,5-diazabicyclo[2.2.1]heptan-2-yl)phenyl)pyrimidin-2-amine]
18 | 1 to 10 | CN1C[C@@H]2C[C@H]1CN2c1ccc(Nc2nccc(-c3ccc(N4CCOCC4)cc3)n2)cc1F [compound 47, 4-(4-(morpholin-4-yl)phenyl)-N-(3-fluoro-4-((1S,4S)-5-methyl-2,5-diazabicyclo[2.2.1]heptan-2-yl)phenyl)pyrimidin-2-amine]
19 | < 1 | CN1C[C@@H]2C[C@H]1CN2c1ccc(Nc2nccc(-c3ccc(NC(=O)NC4CC4)cc3)n2)cc1 [compound 139, 4-(4-(3-cyclopropylureido)phenyl)-N-(4-((1S,4S)-5-methyl-2,5-diazabicyclo[2.2.1]heptan-2-yl)phenyl)pyrimidin-2-amine]
20 | < 1 | Cc1cc(Nc2nccc(-c3ccc4nccn4c3)n2)ccc1N1C[C@@H]2C[C@H]1CN2C [compound 103, 4-(imidazo[1,2-a]pyridin-6-yl)-N-(3-methyl-4-((1S,4S)-5-methyl-2,5-diazabicyclo[2.2.1]heptan-2-yl)phenyl)pyrimidin-2-amine]
21 | < 1 | Cc1cc(Nc2nccc(-c3cnc4c(c3)OC(C)(C)C(=O)N4)n2)ccc1N1C[C@@H]2C[C@H]1CN2C [compound 130, 4-(2,2-dimethyl-3-oxo-3,4-dihydro-2H-pyrido[3,2-b][1,4]oxazin-7-yl)-N-(3-methyl-4-((1S,4S)-5-methyl-2,5-diazabicyclo[2.2.1]heptan-2-yl)phenyl)pyrimidin-2-amine]
22 | < 1 | CN1C[C@H]2C[C@@H]1CN2c1ccc(Nc2nccc(-c3ccc(N4CCOCC4)nc3)n2)cc1F [compound 74, 4-(6-(morpholin-4-yl)pyridin-3-yl)-N-(3-fluoro-4-((1R,4R)-5-methyl-2,5-diazabicyclo[2.2.1]heptan-2-yl)phenyl)pyrimidin-2-amine]
23 | 1 to 10 | CCOc1ccc(-c2ccnc(Nc3ccc(N4C[C@@H]5C[C@H]4CN5C)c(F)c3)n2)cn1 [compound 174, 4-(6-ethoxypyridin-3-yl)-N-(3-fluoro-4-((1S,4S)-5-methyl-2,5-diazabicyclo[2.2.1]heptan-2-yl)phenyl)pyrimidin-2-amine]
24 | < 1 | Cc1cc(Nc2ncc(C)c(-c3ccc(N(C)C)nc3)n2)ccc1N1C[C@@H]2C[C@H]1CN2C [compound 2, 4-(6-(N,N-dimethylamino)pyridin-3-yl)-5-methyl-N-(3-methyl-4-((1S,4S)-5-methyl-2,5-diazabicyclo[2.2.1]heptan-2-yl)phenyl)pyrimidin-2-amine]

same assay, conditions: inhibition of JAK2 activity, proliferation of Ba/F3 V617F cells, read-out: IC50 (the source's name)

Row | GI50 [µM] | SMILES
25 | < 1 | Cc1cc(Nc2nccc(-c3ccc(N4C[C@@H]5C[C@H]4CO5)nc3)n2)cnc1N1C[C@@H]2C[C@H]1CN2C [compound 266, 4-(6-((1S,4S)-2-oxa-5-azabicyclo[2.2.1]heptan-5-yl)pyridin-3-yl)-N-(5-methyl-6-((1S,4S)-5-methyl-2,5-diazabicyclo[2.2.1]heptan-2-yl)pyridin-3-yl)pyrimidin-2-amine]
26 | 1 to 10 | CC(=O)Nc1ccc(-c2ccnc(Nc3cnc(N4C[C@@H]5C[C@H]4CN5C)c(C)c3)n2)cn1 [compound 146, 4-(6-(acetamido)pyridin-3-yl)-N-(5-methyl-6-((1S,4S)-5-methyl-2,5-diazabicyclo[2.2.1]heptan-2-yl)pyridin-3-yl)pyrimidin-2-amine]
27 | 1 to 10 | Cc1cc(-c2ccnc(Nc3ccc(N4C[C@@H]5C[C@H]4CN5C)nc3)n2)cnc1N1CCOCC1 [compound 58, 4-(5-methyl-6-(morpholin-4-yl)pyridin-3-yl)-N-(6-((1S,4S)-5-methyl-2,5-diazabicyclo[2.2.1]heptan-2-yl)pyridin-3-yl)pyrimidin-2-amine]
